# In US10966426B2, “Herbicidal compositions comprising phenylpyrimidines” (BASF SE, priority 2016, dated 2021):
# Several values for one entry are separate records, joined by “and”; a condition that tells them apart may be missing. Identical values can stand only once.
# Legend:
# Assay type in all cases: in vivo
# Digitaria sanguinalis [1] = assay: greenhouse pre-emergence treatment, DIGSA
# Procedure, shortened: (§1)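 Seeds were sown per species in pots of loamy sand with about 3.0% humus, sprayed with the aqueous spray liquor directly after sowing, watered and hooded until rooted, then kept at 10-25° C. or 20-35° C. for 2 to 4 weeks. Damage was scored 0 (none) to 100 (no emergence/complete destruction).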
# Apera spica-venti = assay: greenhouse pre-emergence treatment, APESV
# Procedure, shortened: as §1
# Helianthus annuus = assay: greenhouse post-emergence treatment, HELAN
# Procedure, shortened: (§2)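 Mixtures formulated as 10% by weight emulsion concentrates, applied in water post-emergence to plants of 3–15 cm. Cool-season species held at 10-25° C., warm-season at 20-35° C.; rating 0 (no damage) to 100 (destruction).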
# Galium aparine = assay: greenhouse post-emergence treatment, GALAP
# Procedure, shortened: (§3)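 Seeds sown per species in pots of loamy sand; seedlings either grown in place or transplanted days before treatment. Post-emergence spray of water-based liquor at 3–15 cm height. Injury rated 0–100 over 2 to 4 weeks.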
# Stellaria media = assay: greenhouse post-emergence treatment, STEME
# Procedure, shortened: as §2
# Echinocloa crus-galli = assay: greenhouse post-emergence treatment, ECHCG
# Procedure, shortened: as §3
# Digitaria sanguinalis [2] = assay: greenhouse post-emergence treatment, DIGSA
# Procedure, shortened: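 Scoring used a 0 to 100 scale, with 100 denoting no emergence or full destruction of at least the above-ground parts, recorded within a 2 to 4 week test period. Test plants grew in loamy sand containing about 3.0% humus at 10-25° C. or 20-35° C., after direct sowing or transplanting, and received water-based treatments post-emergence.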
# [3] = 20 DAT, Ex. 26 solo 62.5 gai/ha
# [4] = DIGSA, Ex. 26 solo 125 gai/ha, 20 DAT
smiles,measurement,setting,value
COC(=O)c1nc(C2CC2)ncc1-c1ccc(F)cc1Cl [Ex. 26],% activity,Digitaria sanguinalis [1]; [3],30%
same,% activity,"Digitaria sanguinalis [1]; 20 DAT, Ex. 26 solo 125 gai/ha",60%
same,% activity,"Digitaria sanguinalis [1]; DIGSA, 20 DAT, solo Ex. 26 62.5 gai/ha",20%
same,% activity,"Digitaria sanguinalis [1]; DIGSA, 20 DAT, solo Ex. 26 125 gai/ha",45%
same,% activity,"Digitaria sanguinalis [1]; DIGSA, 20 DAT, solo Ex. 26 125 gai/ha (Table X68)",40%
same,% activity,"Digitaria sanguinalis [1]; DIGSA, Ex. 26 solo 31.25 gai/ha, 20 DAT",35%
same,% activity,"Digitaria sanguinalis [1]; DIGSA, Ex. 26 solo 62.5 gai/ha, 20 DAT",55%
same,% activity,Digitaria sanguinalis [1]; [4],60%
same,% activity,"Digitaria sanguinalis [1]; Ex. 26 solo 125 gai/ha, 21 DAT, DIGSA",45%
same,% activity,"Digitaria sanguinalis [1]; Ex. 26 solo, 31.25 gai/ha, 20 DAT, DIGSA",5%
same,% activity,"Digitaria sanguinalis [1]; Ex. 26 solo, 125 gai/ha, 20 DAT, DIGSA",40%
same,% activity,"Apera spica-venti; 20 DAT, Ex. 26 solo 125 gai/ha",90%
same,% activity,"Apera spica-venti; 20 DAT, solo Ex. 26 125 gai/ha",75%
same,% activity,"Apera spica-venti; 20 DAT, solo Ex. 26 125 gai/ha (Table X68)",70%
same,% activity,"Apera spica-venti; Ex. 26 solo 125 gai/ha, 20 DAT",65%
same,% activity,"Apera spica-venti; Ex. 26 solo, 125 gai/ha, 20 DAT",70%
same,% activity,"Helianthus annuus; 20 DAT, Ex. 26 solo 250 gai/ha",0%
same,% activity,"Helianthus annuus; 20 DAT, HELAN, Ex. 26 solo 125 gai/ha",0% and 10%
same,% activity,"Helianthus annuus; 20 DAT, HELAN, Ex. 26 solo 250 gai/ha",10%
same,% activity,"Helianthus annuus; Ex. 26 solo 62.5 gai/ha, 20 DAT, HELAN",0%
same,% activity,"Helianthus annuus; Ex. 26 solo 125 gai/ha, 20 DAT, HELAN",0%
same,% activity,"Helianthus annuus; Ex. 26 solo 250 gai/ha, 20 DAT, HELAN",5%
same,% activity,"Helianthus annuus; Ex. 26 solo, 125 gai/ha, 21 DAT, HELAN",10%
same,% activity,"Helianthus annuus; Ex. 26 solo, 250 gai/ha, 21 DAT, HELAN",25%
same,% activity,"Galium aparine; 20 DAT, Ex. 26 solo 125 gai/ha",0%
same,% activity,"Galium aparine; 20 DAT, GALAP, Ex. 26 solo 62.5 gai/ha",0%
same,% activity,"Galium aparine; 20 DAT, GALAP, Ex. 26 solo 125 gai/ha",0%
same,% activity,"Galium aparine; 20 DAT, GALAP, Ex. 26 solo 250 gai/ha",0%
same,% activity,"Galium aparine; Ex. 26 solo 62.5 gai/ha, 20 DAT, GALAP (pyridate table)",0%
same,% activity,"Galium aparine; Ex. 26 solo 62.5 gai/ha, 20 DAT, GALAP (pyroxsulam table)",0%
same,% activity,"Galium aparine; Ex. 26 solo 125 gai/ha, 20 DAT, GALAP (pyridate table)",0%
same,% activity,"Galium aparine; Ex. 26 solo 125 gai/ha, 20 DAT, GALAP (pyroxsulam table)",0%
same,% activity,"Galium aparine; Ex. 26 solo 125 gai/ha, 21 DAT, GALAP",0%
same,% activity,"Galium aparine; Ex. 26 solo 250 gai/ha, 20 DAT, GALAP (pyridate table)",0%
same,% activity,"Galium aparine; Ex. 26 solo 250 gai/ha, 20 DAT, GALAP (pyroxsulam table)",30%
same,% activity,"Galium aparine; Ex. 26 solo 250 gai/ha, 21 DAT, GALAP",0%
same,% activity,"Galium aparine; GALAP, 21 DAT, solo Ex. 26 250 gai/ha",25%
same,% activity,"Galium aparine; GALAP, Ex. 26 solo 125 gai/ha, 20 DAT",0%
same,% activity,"Galium aparine; GALAP, Ex. 26 solo 250 gai/ha, 20 DAT",0%
same,% activity,Stellaria media; [3],0%
same,% activity,"Stellaria media; 20 DAT, STEME, Ex. 26 solo 250 gai/ha",60%
same,% activity,"Stellaria media; Ex. 26 solo 62.5 gai/ha, 20 DAT, STEME",20%
same,% activity,"Stellaria media; Ex. 26 solo 125 gai/ha, 20 DAT, STEME",55%
same,% activity,"Stellaria media; Ex. 26 solo 125 gai/ha, 21 DAT, STEME",0%
same,% activity,"Stellaria media; Ex. 26 solo 250 gai/ha, 20 DAT, STEME",30%
same,% activity,"Stellaria media; Ex. 26 solo, 125 gai/ha, 21 DAT, STEME",0%
same,% activity,"Stellaria media; Ex. 26 solo, 250 gai/ha, 21 DAT, STEME",10%
same,% activity,"Stellaria media; STEME, 21 DAT, solo Ex. 26 62.5 gai/ha",0%
same,% activity,"Stellaria media; STEME, 21 DAT, solo Ex. 26 125 gai/ha",0%
same,% activity,"Stellaria media; STEME, 21 DAT, solo Ex. 26 250 gai/ha",10%
same,% activity,"Stellaria media; STEME, Ex. 26 solo 125 gai/ha, 20 DAT",40%
same,% activity,"Stellaria media; STEME, Ex. 26 solo 250 gai/ha, 20 DAT",40%
same,% activity,"Echinocloa crus-galli; 20 DAT, ECHCG, Ex. 26 solo 125 gai/ha",65%
same,% activity,"Echinocloa crus-galli; 20 DAT, ECHCG, Ex. 26 solo 250 gai/ha",70%
same,% activity,"Echinocloa crus-galli; 20 DAT, Ex. 26 solo 250 gai/ha",80% and 60%
same,% activity,"Echinocloa crus-galli; ECHCG, Ex. 26 solo 62.5 gai/ha, 20 DAT",60%
same,% activity,"Echinocloa crus-galli; ECHCG, Ex. 26 solo 125 gai/ha, 20 DAT",65%
same,% activity,"Echinocloa crus-galli; ECHCG, Ex. 26 solo 250 gai/ha, 20 DAT",70% and 65%
same,% activity,"Echinocloa crus-galli; Ex. 26 solo 62.5 gai/ha, 21 DAT, ECHCG",50%
same,% activity,"Echinocloa crus-galli; Ex. 26 solo 250 gai/ha, 20 DAT, ECHCG",65%
same,% activity,"Digitaria sanguinalis [2]; 20 DAT, DIGSA, Ex. 26 solo 125 gai/ha",0%
same,% activity,Digitaria sanguinalis [2]; [3],0%
same,% activity,"Digitaria sanguinalis [2]; 20 DAT, Ex. 26 solo 250 gai/ha",20% and 30%
same,% activity,"Digitaria sanguinalis [2]; 21 DAT, Ex. 26 solo 125 gai/ha",0%
same,% activity,"Digitaria sanguinalis [2]; DIGSA, 21 DAT, solo Ex. 26 62.5 gai/ha",20%
same,% activity,"Digitaria sanguinalis [2]; DIGSA, 21 DAT, solo Ex. 26 125 gai/ha",20%
same,% activity,"Digitaria sanguinalis [2]; DIGSA, 21 DAT, solo Ex. 26 250 gai/ha",20%
same,% activity,Digitaria sanguinalis [2]; [4],0%
same,% activity,"Digitaria sanguinalis [2]; Ex. 26 solo 62.5 gai/ha, 20 DAT, DIGSA",0%
